This note sets out measurements from US4124726A, “Anti-inflammatory agent of benzoyl derivative” (priority 1976, dated 1978).

The ED50 is the dose at which the effect has come halfway, by size or by number of responders. For orientation: LD50 means the dose at which mortality reaches 50%. High values mean lower toxicity, low ones greater toxicity. Broadly, the inhibition is the percentage by which the read-out fell short of the control.

Where two headings read alike, the source gives them in different places.

One series deals with carragheenin edema. Description: acute carragheenin edema inhibition (anti-inflammatory effect). The conditions noted are these: for ED50 / inhibition in vivo at 100 mg/kg: Rattus norvegicus; for ED50: read-out: 50% inhibition rate ED50; for inhibition in vivo at 100 mg/kg / Anti-inf. (edema inhibition rate): 100 mg/kg oral; for inhibition in vivo at 100 mg/kg: read-out: Anti-inf. (edema inhibition rate). The class given is in vivo, male rats. How it is done:
The edema was induced by subcutaneous injection of 1% carraheenin suspension in saline to the hind paws of male rats weighing 150 to 180 g. Each sample was orally given at the dosage of 100 mg/kg just before the inoculation of carragheenin.

The test system of a further series is platelet aggregation. Description: blood platelet aggregation inhibition, collagen as inducer. The series is classed as cell-based. The settings on record: 10^-4 mole, rabbit PRP; for inhibition at 100 µM: Oryctolagus cuniculus, Platelet, read-out: Blood platelet agg. inh. (percentage inhibition of platelet aggregation). An excerpt:
Blood platelet aggregation inhibiting effect
Male rabbits (Japan original white strain 3.3 to 3.6 kg) were anesthetized with Thiopental sodium and blood was sampled from the carotid artery.

The next series can be described thus: in vivo. The settings on record: mouse, po. Here is the method: Each sample was dissolved in olive oil or dispersed in 1% Tween 20 aqueous solution.
In another series the test system is thrombosis. As to the kind of experiment: inhibiting effect on thrombosis (arterio-venous by-pass, silk thread). The class given is in vivo, SD type male rats. The settings on record: for inhibition in vivo at 100 mg/kg: Rattus norvegicus, read-out: Thrombosis inh. How it is done:
Inhibiting effect on thrombosis:
The inhibiting effects of the samples of the invention on thrombosis were tested by the following test method.
A 0.5 ml of 50 μ/ml of the heparin physiological saline was added through the polyethylene tube before the first blood circulation. After the blood circulation for 15 minutes, the circulation was stopped in the middle of the tubing at artery side with a pinch cock.
Then, 0.2 ml of the heparin physiological saline was added to remove the blood coagulates on the tubing wall and another new polyethylene tubing filled with the heparin solution and containing a piece of new silk thread was attached between the venous and artery tubing ends.
The blood circulation was reestablished by opening the pinch cock. After 15 minutes, the wet weight of thrombus on the silk thread was similarly measured. In the same manner, the third circulation was performed and wet weight of thrombus measured.
The amount of thrombus was given by the equation A. [formula] Each sample was suspended in an aqueous solution of sodium carboxymethyl cellulose and the oral dose of the suspension (100 mg/kg) was performed at 5 hours before the first blood circulation. The amount of thrombus after the oral dose of the sample was calculated in the same manner as that of control circulations.
The thrombosis inhibition rate was given by the equation B. [formula]

For series [1], the system named is painful stretchings induced by acetic acid. Description: acetic acid induced stretching (analgesic effect). The conditions noted are these: for Analgesic (percentage diminution of times of painful stretchings): 100 mg/kg oral, 0.7% acetic acid i.p., mice; for inhibition in vivo at 100 mg/kg: Mus musculus, po, read-out: Analgesic (percentage diminution of times of painful stretchings).
Protocol: Each sample was orally administrated in the dosage of 100 mg/kg before injection of acetic acid.

[2] abbreviates: oral, carragheenin edema, rats, Table 2.
Where [3] appears, read: 100 mg/kg oral, 5 hours before first circulation, rats.
Setting [4] is: carragheenin edema, rats, Table 2.

`CCCCc1ccc(C(=O)c2ccccc2)cc1` [compound 19]: in the series on carragheenin edema (setting [2]), the ED50 stood at 25 mg/kg. Also, the “Blood platelet agg. inh. (percentage inhibition of platelet aggregation)” value in the series on platelet aggregation is recorded as 18.6%. The same compound came in with an LD50 at 72 h in the series “in vivo” of 2400 mg/kg. For the same compound, in the series with thrombosis (setting [3]), the inhibition in vivo at 100 mg/kg was found to be 7.9%. For the same compound, the “Analgesic (percentage diminution of times of painful stretchings)” value in series [1] is reported as 30.1%.

In the case of `Cc1ccc(C)c(C(=O)c2ccccc2)c1` [compound 38], the 50% effective dose (ED50) in the series with carragheenin edema (setting [2]) came to 170 mg/kg. In the series on platelet aggregation, the “Blood platelet agg. inh. (percentage inhibition of platelet aggregation)” value amounted to 20.9%. The median lethal dose (LD50) at 72 h in the series “in vivo” worked out at 1000 mg/kg. Moreover, the inhibition in vivo at 100 mg/kg in the series on thrombosis (setting [3]) came out at 8.3%. Besides, in series [1], the “Analgesic (percentage diminution of times of painful stretchings)” value came out at 18.0%.

In the case of `O=C(c1ccccc1)c1ccc(C2CCCCC2)cc1` [compound 73], the inhibition in vivo at 100 mg/kg in the series on carragheenin edema (setting [4]) worked out at 32.1%; with thrombosis (setting [3]), 28.8%; in series [1], 10%. Moreover, in the series with platelet aggregation, the inhibition at 100 µM was found to be 20.3%. The compound further came in with a 50% lethal dose (LD50) at 72 h in the series “in vivo” of 6000 mg/kg.

On to `O=C(C(=O)c1ccccc1)c1ccccc1` [compound 53], for which the “Anti-inf. (edema inhibition rate)” value in the series on carragheenin edema (setting [4]) is recorded as 20.3%. The “Blood platelet agg. inh. (percentage inhibition of platelet aggregation)” value in the series with platelet aggregation amounted to 10.1%. In addition, the Thrombosis inh. in the series on thrombosis (setting [3]) was 19.2%. For the same compound, the “Analgesic (percentage diminution of times of painful stretchings)” value in series [1] is recorded as 14.2%.

`Cc1cc(C)c(C(=O)c2ccccc2)c(C)c1` [compound 30]: the inhibition in vivo at 100 mg/kg in the series with carragheenin edema (setting [4]) came to 64.7%; in the series with thrombosis (setting [3]), 44.8%; in series [1] it was 13.4%. Moreover, the median effective dose (ED50) with carragheenin edema (setting [2]) was determined as 45 mg/kg. For the same compound, in the series on platelet aggregation, the inhibition at 100 µM was found to be 8.7%. Besides, in the series “in vivo”, the median lethal dose (LD50) at 72 h turned out to be 1500 mg/kg.

`CCCCCCc1ccc(C(=O)c2ccc(C)cc2C)cc1` [Active ingredient No. 4]: the figures for the inhibition in vivo at 100 mg/kg (in the series on carragheenin edema (setting [4]); with thrombosis (setting [3]); in series [1]) were 44.2%, 15.9% and 16.3%, respectively. In addition, the inhibition at 100 µM with platelet aggregation is 20.5%. In the series “in vivo”, this compound returned an LD50 at 72 h of 4000 mg/kg.

With `CCCCc1ccc(C(=O)c2ccccc2F)cc1` [compound 8], the ED50 in the series on carragheenin edema (setting [2]) was 38 mg/kg. For the same compound, in the series on platelet aggregation, the “Blood platelet agg. inh. (percentage inhibition of platelet aggregation)” value is 24.0%. Further, the inhibition in vivo at 100 mg/kg in the series on thrombosis (setting [3]) turned out to be 38%. Besides, in series [1], the “Analgesic (percentage diminution of times of painful stretchings)” value is given as 14.8%.

With `COc1ccc(C(=O)C(=O)c2ccccc2)cc1`, the “Anti-inf. (edema inhibition rate)” value in the series on carragheenin edema (setting [4]) is recorded as 43.9%. In addition, in the series with platelet aggregation, the “Blood platelet agg. inh. (percentage inhibition of platelet aggregation)” value was 20.1%. In the series “in vivo”, this compound registered an LD50 at 72 h of 10000 mg/kg. In addition, the Thrombosis inh. in the series with thrombosis (setting [3]) was 18.3%. The “Analgesic (percentage diminution of times of painful stretchings)” value in series [1] was found to be 10.2%.

As to `O=C(c1ccccc1)c1ccccc1` [compound 27], in the series on carragheenin edema (setting [4]), the “Anti-inf. (edema inhibition rate)” value turned out to be 47.7%. Further, the ED50 in the series with carragheenin edema (po) came to 120 mg/kg. The “Blood platelet agg. inh. (percentage inhibition of platelet aggregation)” value with platelet aggregation is 25.7%. In the series “in vivo”, this compound had a median lethal dose (LD50) at 72 h of 3700 mg/kg. In the series on thrombosis (setting [3]), the Thrombosis inh. amounted to 25.9%. The “Analgesic (percentage diminution of times of painful stretchings)” value in series [1] is reported as 13.2%.

Take `CC(C)(C)c1ccc(C(=O)c2ccccc2)cc1` [compound 22]: in the series with platelet aggregation, the “Blood platelet agg. inh. (percentage inhibition of platelet aggregation)” value turned out to be 9.5%. Moreover, the LD50 at 72 h in “in vivo” worked out at 2000 mg/kg. Further, in the series on thrombosis (setting [3]), the inhibition in vivo at 100 mg/kg came to 7.9%. The “Analgesic (percentage diminution of times of painful stretchings)” value in series [1] was 8.2%.

With `Cc1ccc(C(=O)C(=O)c2ccccc2)cc1` [compound 54], in the series with carragheenin edema (setting [4]), the “Anti-inf. (edema inhibition rate)” value was 25.5%. The “Blood platelet agg. inh. (percentage inhibition of platelet aggregation)” value in the series on platelet aggregation is given as 15.4%. Besides, in the series on thrombosis (setting [3]), the Thrombosis inh. was determined as 20.3%. Further, the “Analgesic (percentage diminution of times of painful stretchings)” value in series [1] was determined as 11.3%.

Consider `O=C(Cc1ccccc1)c1ccccc1` [compound 47], for which, in the series with carragheenin edema (setting [4]), the “Anti-inf. (edema inhibition rate)” value is recorded as 20.9%. For the same compound, the “Blood platelet agg. inh. (percentage inhibition of platelet aggregation)” value with platelet aggregation amounted to 18.3%. This compound also returned a Thrombosis inh. in the series with thrombosis (setting [3]) of 15.6%. For the same compound, the “Analgesic (percentage diminution of times of painful stretchings)” value in series [1] was 13.1%.

As to `COc1ccc(C(=O)c2ccccc2)cc1` [compound 28], the “Anti-inf. (edema inhibition rate)” value with carragheenin edema (setting [4]) is 44.1%. For the same compound, the “Blood platelet agg. inh. (percentage inhibition of platelet aggregation)” value in the series on platelet aggregation stood at 20.4%. In addition, the LD50 at 72 h in the series “in vivo” is over 10000 mg/kg. Besides, in the series on thrombosis (po), the inhibition in vivo at 100 mg/kg stood at 7.3%. The “Analgesic (percentage diminution of times of painful stretchings)” value in series [1] turned out to be 4.2%.
